Here are results for six compounds from paper PMC9322761, “Design, Synthesis and Biological Characterization of Histone Deacetylase 8 (HDAC8) Proteolysis Targeting Chimeras (PROTACs) with Anti-Neuroblastoma Activity” (International Journal of Molecular Sciences, 2022).

Test [1] addresses T1, HDAC8 (Homo sapiens, UniProt Q9BY41).
T1 sequence (Q9BY41 1-377): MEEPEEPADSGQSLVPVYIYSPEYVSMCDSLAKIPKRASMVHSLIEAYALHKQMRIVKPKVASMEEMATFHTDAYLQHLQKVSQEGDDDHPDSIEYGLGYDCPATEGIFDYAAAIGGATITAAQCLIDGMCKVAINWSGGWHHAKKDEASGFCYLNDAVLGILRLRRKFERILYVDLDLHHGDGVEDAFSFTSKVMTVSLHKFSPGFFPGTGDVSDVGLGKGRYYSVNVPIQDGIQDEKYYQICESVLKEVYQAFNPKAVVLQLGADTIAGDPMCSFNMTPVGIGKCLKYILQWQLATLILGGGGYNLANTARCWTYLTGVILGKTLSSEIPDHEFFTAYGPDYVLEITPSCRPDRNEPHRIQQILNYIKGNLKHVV
Also on record: made in house; method as in PMID 29190092, PMID 26937828. Particulars: Table 2, previously published benzhydroxamate inhibitors; read-out: HDAC8 IC50; cited from earlier work.

Test [2] has as its target T1, HDAC8. Put plainly: In vitro HDAC8 activity assay (Fluor de Lys-HDAC8). The format is biochemical. Also on record: made in house. As to conditions: for SI (HDAC6/HDAC8): selectivity index, HDAC6 over HDAC8. The procedure:
Recombinant hHDAC8 was produced by Romier et al. in Strasbourg. The HDAC8 activity assays were performed according to the commercial HDAC8 Fluorometric Drug Discovery Kit (Fluor de Lys(R)-HDAC8, BML-KI178) corresponding to the instructions of the manufacturer. As substrate a tetrapeptide connected to aminomethylcoumarin (AMC) H2N-Arg- His-Lys(Ac)-Lys(Ac)-AMC was synthesized as previously described. The enzyme was incubated for 90 min at 37 °C, with a substrate concentration of 50 µM and increasing concentrations of inhibitors. The stop-solution-containing inhibitor was added to stop the hHDAC8 activity, and Trypsin was added to release the AMC. The solution was incubated for 20 min at 37 °C to develop the assay.
(§1) Inhibition was measured at increasing concentration and IC50 was calculated by nonlinear regression with Origin 9.0G software.

In test [3] the target is T1, HDAC8. The experiment in a line: HDAC8 degradation in SK-N-BE(2)-C neuroblastoma cells (Western blot). The format is cell-based. Also on record: endogenous in cells; host or cells: SK-N-BE(2)-C. Particulars: SK-N-BE(2)-C cells, up to 10 µM, Western blot. How it is done:
Whole cell lysates from treated SK-N-BE(2)-C neuroblastoma cells were taken and the protein levels for HDAC8 and the acetylation of its substrate SMC3 were determined (Figure 6). As a control for HDAC6, we also assessed acetylation levels of α-tubulin. […] Western blot analysis was performed as described previously (Kolbinger et al.).
(§2) Figure 6 (A) SK-N-BE(2)-C neuroblastoma cells were treated for indicated time points with 10 µM of PROTACs. Degradation of HDAC8 and acetylation of HDAC8 target was analyzed via Western blot. (B) SK-N-BE(2)-C neuroblastoma cells were treated for 6 h with indicated concentrations of HyT_1p, CRBN_1b and HyT_1m. Acetylation of HDAC8 target SMC3 and HDAC6 target tubulin, as well as total HDAC8 levels, were assessed by Western blot. Quantified ac-SMC3 or ac-tubulin expression, respectively, was normalized to the respective tubulin loading control and to the solvent control (DMSO). This quantification is reflected by the numbers below each blot. […] Total HDAC6, total HDAC1, total HDAC8, and acetyl-histone H4 expression levels, were assessed by Western blot. Total GAPDH protein levels served as a loading control (LC). * unspecific bands obtained through reprobing of the membrane.

The test system of another test is acetylated SMC3. The experiment in a line: Acetylation of HDAC8 substrate SMC3 in SK-N-BE(2)-C cells (Western blot). The format is cell-based, human. As to conditions: 10 µM. The procedure: To test the degradation of HDAC8 with the developed PROTACs, we selected the most promising compounds obtained from the cellular neuroblastoma testing; namely CRBN_1b, CRBN_1d, CRBN_1e, HyT_1m, and HyT_1p. Whole cell lysates from treated SK-N-BE(2)-C neuroblastoma cells were taken and the protein levels for HDAC8 and the acetylation of its substrate SMC3 were determined (Figure 6). As a control for HDAC6, we also assessed acetylation levels of α-tubulin. […]. A clear dose-dependent degradation of HDAC8 by PROTAC CRBN_1e was observed (Figure 6C). After 48 h, the HDAC8 protein level was back to baseline, presumably due to de novo protein synthesis. […]. Western blot analysis was performed as described previously (Kolbinger et al.). […]
as §2, with “(B) SK-N-BE(2)-C neuroblastoma cells were treated for 6 h with indicated concentrations of HyT_1p, CRBN_1b and HyT_1m.” left out, “Total GAPDH protein levels served as a loading control (LC). * unspecific bands obtained through reprobing of the membrane.” left out

In a further test the test system is SK-N-BE(2)-C cells. The experiment in a line: Colony formation assay in neuroblastoma cells. The format is cell-based, human. As to conditions: 5 and 10 μM, treatment 96 h, then 6 days without treatment. How it is done: In order to measure the functional consequence of HDAC8 inhibition, two different cell lines were used: SK-N-BE(2)-C cells, which display MYCN amplification and non-functional p53; and IMR-32 cells having p53 wild type, which both respond with growth arrest and signs of neuronal differentiation upon knockdown or selective inhibition of HDAC8. Growth arrest was determined by colony formation and viability assays. Cells were treated with 5 and 10 μM of each of the CRBN_ based HDAC8 PROTACs having a triazole linker (CRBN_1d, CRBN_1e, CRBN_1f) for 96 h, followed by culturing for another 6 days without treatment (Figure 5A). This assesses whether the treatment impairs the clonogenic growth capacity of tumor cells, indicating effectiveness of compounds on the survival and proliferation of tumor cells.
In six-well plates, 500 cells were seeded and treated as indicated. Viable colonies were stained after a minimum of 10 days with crystal violet. For quantification, the mean intensity of each well of the 8-bit binary picture was measured with ImageJ software (U. S. National Institutes of Health, Bethesda, MD, USA; http://imagej.nih.gov/ij/ (accessed on 1 March 2022)).
(§3) Figure 5 (A) Neuroblastoma SK-N-BE(2)-C cells; Colony Assay, 10 days (compound treatment within first 96 h). Stained with crystal violet and quantified with ImageJ. (B,C) Trypan Blue assay for detection of dead cells. Neuroblastoma IMR-32 cells were either treated with 5 µM (B) or 10 µM (C). (D,E) Cell proliferation assessed via counting of viable cells. IMR-32 cells were either treated with 5 µM (D) or 10 µM (E) PROTACs. HDAC8i PCI-34501 served as a positive control, untreated (MEM) and solvent (DMSO) treated cells served as negative controls.

The next test concerns the target HDAC1 (Homo sapiens, UniProt Q13547). Put plainly: In vitro HDAC inhibitory activity assay, recombinant HDAC1 (fluorogenic substrate ZMAL). The format is biochemical. The arrangement: purchased BPS Biosciences. The procedure:
(§4) The in vitro testing on recombinant HDACs was performed as previously described. Recombinant human HDAC1 and −6 were purchased from BPS Biosciences. The enzyme inhibition was determined by using a reported homogenous fluorescence assay. […] Fluorescence intensity was measured at an excitation wavelength of 390 nm and an emission wavelength of 460 nm in a microtiter plate reader (BMG Polarstar).
as §1

The target in the next test is T2, HDAC6 (Homo sapiens, UniProt Q9UBN7).
T2 sequence (Q9UBN7 1-1215): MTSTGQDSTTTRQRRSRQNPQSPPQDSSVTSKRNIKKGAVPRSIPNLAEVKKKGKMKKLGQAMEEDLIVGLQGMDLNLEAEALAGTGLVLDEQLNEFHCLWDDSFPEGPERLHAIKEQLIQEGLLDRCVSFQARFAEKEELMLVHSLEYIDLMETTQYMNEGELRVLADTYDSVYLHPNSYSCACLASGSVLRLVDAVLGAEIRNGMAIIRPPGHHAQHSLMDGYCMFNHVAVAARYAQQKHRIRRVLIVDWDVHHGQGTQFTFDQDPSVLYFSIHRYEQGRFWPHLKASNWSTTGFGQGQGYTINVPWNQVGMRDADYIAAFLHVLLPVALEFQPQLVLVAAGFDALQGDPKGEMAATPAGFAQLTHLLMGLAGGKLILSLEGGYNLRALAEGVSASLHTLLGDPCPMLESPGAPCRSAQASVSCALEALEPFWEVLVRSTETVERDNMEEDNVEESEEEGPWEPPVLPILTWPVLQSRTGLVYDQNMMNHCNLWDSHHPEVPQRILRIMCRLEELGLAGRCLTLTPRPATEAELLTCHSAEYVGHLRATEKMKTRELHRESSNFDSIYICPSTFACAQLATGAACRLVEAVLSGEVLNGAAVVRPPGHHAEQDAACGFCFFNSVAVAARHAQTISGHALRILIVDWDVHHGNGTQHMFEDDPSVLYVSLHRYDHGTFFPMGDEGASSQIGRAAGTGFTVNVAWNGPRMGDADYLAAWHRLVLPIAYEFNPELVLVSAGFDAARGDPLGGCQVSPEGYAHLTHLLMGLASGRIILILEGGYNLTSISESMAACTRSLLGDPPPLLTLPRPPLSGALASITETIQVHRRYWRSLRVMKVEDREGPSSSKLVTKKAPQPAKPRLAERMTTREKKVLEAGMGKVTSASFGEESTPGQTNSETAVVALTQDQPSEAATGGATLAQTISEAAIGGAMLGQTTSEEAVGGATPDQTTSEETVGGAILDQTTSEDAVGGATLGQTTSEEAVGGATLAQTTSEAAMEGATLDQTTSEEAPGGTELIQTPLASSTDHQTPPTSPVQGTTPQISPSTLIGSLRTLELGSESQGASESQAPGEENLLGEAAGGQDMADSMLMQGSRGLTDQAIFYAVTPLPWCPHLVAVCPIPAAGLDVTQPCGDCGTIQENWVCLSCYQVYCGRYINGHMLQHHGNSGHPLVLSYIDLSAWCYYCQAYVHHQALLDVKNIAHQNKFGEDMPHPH
The experiment in a line: In vitro HDAC inhibitory activity assay, recombinant HDAC6 (fluorogenic substrate ZMAL). The format is biochemical. The arrangement: purchased BPS Biosciences. The procedure:
as §4, §1

A further test concerns IMR-32 cells. Put plainly: Cell viability / proliferation (trypan blue, viable cell count) in neuroblastoma cells. The format is cell-based, human. Particulars: 5 and 10 µM. The procedure:
Moreover, we treated neuroblastoma IMR-32 cells with the remaining PROTACs and counted the resulting viable cells. We quantified the percentage of dead cells as shown in (Figure 5B,C). In addition, cell proliferation was assessed via counting of viable cells (Figure 5D,E). […] As reference, the HDAC8 inhibitor PCI-34501 was used.
Adherent cells were detached using trypsin–EDTA (ThermoFisher Scientific, Bremen, Germany) and pooled with corresponding supernatant, centrifuged, and resuspended in 1 mL of cell culture medium. Cell viability (viable cell number, % viability, % dead cells) was measured by automated trypan blue staining using the Vi-Cell XR Cell Viability Analyzer (Beckman Coulter, Krefeld, Germany).
as §3

Where [4] appears, read: Table 1, PROTACs, read-out: HDAC6 IC50.

Like-named read-outs stand apart in the source and are kept apart here.

Chain of HDAC1 (Q13547 whole entry): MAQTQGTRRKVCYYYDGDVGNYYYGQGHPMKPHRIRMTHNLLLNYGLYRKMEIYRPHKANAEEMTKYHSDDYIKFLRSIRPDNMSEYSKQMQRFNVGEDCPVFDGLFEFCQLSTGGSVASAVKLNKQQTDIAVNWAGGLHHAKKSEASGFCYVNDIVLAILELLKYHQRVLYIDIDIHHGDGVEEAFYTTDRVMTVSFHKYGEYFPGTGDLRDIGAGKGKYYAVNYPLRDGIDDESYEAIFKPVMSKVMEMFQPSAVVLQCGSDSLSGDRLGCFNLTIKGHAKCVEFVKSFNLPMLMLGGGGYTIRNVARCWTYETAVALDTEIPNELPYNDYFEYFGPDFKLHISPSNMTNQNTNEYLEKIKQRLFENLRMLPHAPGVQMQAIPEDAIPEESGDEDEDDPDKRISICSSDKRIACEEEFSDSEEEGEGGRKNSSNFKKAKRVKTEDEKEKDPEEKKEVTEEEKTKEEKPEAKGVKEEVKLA

As to `COc1ccc(C(=O)NO)cc1NC(=O)c1ccccc1` [2b], the half-maximal inhibitory concentration (IC50) at HDAC8 [1] was 90 ± 20 nM. Further, at HDAC8 [2], the “SI (HDAC6/HDAC8)” value amounted to 28.
As to `O=C(NO)c1cccc(NCc2ccccc2)c1` [2d], the IC50 on HDAC8 [1] is 140 ± 10 nM.
For `Cc1ccc(C(=O)NO)cc1NCc1ccc(OCc2cn(Cc3ccccc3)nn2)cc1` [33b], the “HDAC8 degradation” value on HDAC8 [3] is “no HDAC8 degradation”. Further, half-maximal inhibition against HDAC8 [2] (negative control without pomalidomide warhead) (IC50) was put at 698 ± 41 nM. Besides, the “Hyperacetylation of HDAC8 substrate SMC3” value in the test on acetylated SMC3 is “hyperacetylation of SMC3”.
Take `Cc1ccc(C(=O)NO)cc1NCc1ccc(OCc2cn(CCCCCC(=O)Nc3cccc4c3C(=O)N(C3CCC(=O)NC3=O)C4=O)nn2)cc1` (centres unmarked) [CRBN_1d]: the “Effect on colony formation” value in the test with SK-N-BE(2)-C cells is listed as “strongest effect on colony formation”. The “HDAC8 degradation” value on HDAC8 [3] is on record as “failed to degrade HDAC8”. Also, the IC50 at HDAC1 stood at 13100 ± 600 nM; on HDAC8 [2] (Table 1, PROTACs), 370 ± 50 nM; at HDAC6, 6700 ± 600 nM. The “SI (HDAC6/HDAC8)” value at HDAC8 [2] is reported as 18.
As for `COc1ccc(C(=O)NO)cc1NC(=O)c1ccc(NC(=O)CCCCCNC(=O)CC23CC4CC(CC(C4)C2)C3)cc1` [HyT_1m], the “HDAC8 degradation” value on HDAC8 [3] is listed as “failed to degrade HDAC8”. Also, the inhibition at 1 µM at HDAC1 (1 µM, read-out: HDAC1 % inhib. at given conc.) worked out at 47.7%. The inhibition at 10 µM at HDAC1 (10 µM, read-out: HDAC1 % inhib. at given conc.) came to 81.9%. Also, the 50% inhibitory concentration (IC50) was determined as 570 ± 110 nM against HDAC8 [2] (Table 1, PROTACs) and 250 ± 80 nM at HDAC6 (setting [4]). In addition, the “Effect in cell proliferation assay (viable cell count)” value with IMR-32 cells was “less significant”.
`COc1ccc(C(=O)NO)cc1NC(=O)c1ccc(NC(=O)CCCCCCC(=O)N[C@H](C(=O)N2C[C@H](O)C[C@H]2C(=O)NCc2ccc(-c3scnc3C)cc2)C(C)(C)C)cc1` [VHL_1k]: the concentration for half-maximal inhibition (IC50) was greater than 20000 nM at HDAC1 (Table 1, PROTACs, read-out: HDAC1 IC50); 110 ± 10 nM against HDAC8 [2] (Table 1, PROTACs); 310 ± 10 nM on HDAC6 (setting [4]). For the same compound, the “SI (HDAC6/HDAC8)” value at HDAC8 [2] was determined as 3. For the same compound, the “Effect in cell proliferation assay (viable cell count)” value with IMR-32 cells is reported as “less significant”.
